“And” between values parts separate entries of the source, which are not always exact repeats. Equal values may be shown once. Read-outs that look alike come from different tables or passages of the source. One block for each molecule: values may come before it.
How the values were obtained:
recombinant human PFK-M = molecular target: T1, recombinant human PFK-M (Homo sapiens, UniProt P08237); experiment: ALDO-TIM-G3PDH enzyme-linked kinetic assay, PFK-M; type: biochemical; set-up: VmaxATP + modulator / VmaxF6P + modulator / K0.5ATP + modulator / K0.5F6P + modulator: unit not given here
T1 construct: made in house; host or cells: PFK-deficient Saccharomyces cerevisiae
T1 sequence (P08237 1-780): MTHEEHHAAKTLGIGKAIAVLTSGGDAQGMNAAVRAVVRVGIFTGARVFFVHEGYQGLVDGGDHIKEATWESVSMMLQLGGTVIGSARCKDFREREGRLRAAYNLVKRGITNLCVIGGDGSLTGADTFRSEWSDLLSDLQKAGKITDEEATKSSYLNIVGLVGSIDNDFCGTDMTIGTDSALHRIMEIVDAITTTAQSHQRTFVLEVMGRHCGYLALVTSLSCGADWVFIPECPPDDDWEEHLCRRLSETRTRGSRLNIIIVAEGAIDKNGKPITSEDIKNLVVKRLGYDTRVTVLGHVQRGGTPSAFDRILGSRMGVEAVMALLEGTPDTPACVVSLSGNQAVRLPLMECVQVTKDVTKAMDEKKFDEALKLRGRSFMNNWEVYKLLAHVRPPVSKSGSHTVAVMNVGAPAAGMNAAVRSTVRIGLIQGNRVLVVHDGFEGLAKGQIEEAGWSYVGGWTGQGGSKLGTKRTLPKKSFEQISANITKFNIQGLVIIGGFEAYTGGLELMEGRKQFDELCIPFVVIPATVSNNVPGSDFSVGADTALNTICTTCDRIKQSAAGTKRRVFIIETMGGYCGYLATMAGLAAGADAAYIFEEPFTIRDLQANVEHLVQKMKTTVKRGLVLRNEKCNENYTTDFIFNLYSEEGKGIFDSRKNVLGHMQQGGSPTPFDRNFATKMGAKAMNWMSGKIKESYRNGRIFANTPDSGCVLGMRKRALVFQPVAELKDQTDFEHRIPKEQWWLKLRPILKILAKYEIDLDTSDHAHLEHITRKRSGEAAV
Procedure: Recombinant human PFKs were expressed in PFK-deficient Saccharomyces cerevisiae and purified using the methods described previously, adapting earlier materials and protocols. Production of PFK intended for use in ATP titration experiments used 1 mM F6P as a tetramer stabilising agent in protein purification and storage buffers. Production of PFK intended for use in F6P titration experiments used 1 mM ATP as a tetramer stabilising agent in protein purification and storage buffers. Experimental details on the purification and characterisation procedures including figures showing SDS–PAGE gels of the highly pure PFKs used in the kinetic experiments described in this work have been recently published.
Assay buffer consisted of 50 mM TEA, 100 mM KCl, 10 mM MgCl2, 1 mM Tris(2-carboxyethyl)phosphine hydrochloride (TCEP), 10% glycerol, pH 7.4. Assay mix consisted of 5 units/ml glycerol-3-phosphate dehydrogenase (G3PDH, Sigma–Aldrich G6880), 2.5 units/ml aldolase (Sigma–Aldrich A2714), 25 units/ml triosephosphate isomerase (TIM, Sigma–Aldrich T6258), and 1.25 mM NADH. ATP and F6P were obtained from Sigma–Aldrich (A2383 and F3627, respectively). For ATP titrations, 38 µl of buffer or ligand were added to a clear non-binding 96-well plate. 40 µl of assay mix containing 10 mM F6P (final concentration 4 mM) was added and the plate was incubated at 25°C for 5 min. An amount of 2 µl of PFK isoforms were added to each well from stock concentrations of 150 µg/ml and the reaction was immediately started with 20 µl of ATP at varying concentrations. For F6P titrations, 30 µl of buffer or ligand was added to a clear non-binding 96-well plate. An amount of 40 µl of assay mix containing 1.25 mM ATP (final concentration 0.5 mM) was added and the plate was incubated at 25°C for 5 min. An amount of 5 µl of PFK isoforms were added to each well from stock concentrations of 200 µg/ml and the reaction was immediately started with 20 µl F6P at varying concentrations. All ligands and substrates (including ATP) were used at pH 7.4. All metabolites were obtained from Sigma–Aldrich unless otherwise stated. […] A SpectraMax M5 Multi-Mode Microplate Reader was used to measure A340nm at 13 s intervals for 10 min. All experiments were performed in triplicate unless otherwise stated.
Time-dependent absorbance change was converted into rate of NADH oxidation (µM s^−1) or specific activity (µmol min^−1 mg protein^−1) using the Beer-Lambert law (molar extinction coefficient of NADH 6.22 mM^−1 cm^−1). The initial rate of reaction was used to avoid accumulation of ADP, which activates PFK, interfering with the determination of kinetic properties. Non-linear regression analysis was performed on substrate titration data using GraphPad Prism 7, with curves fitted using allosteric sigmoidal models, enabling determination of steady-state kinetic values.

PFKM = settings: cited from earlier work; for IC50 or AC50 (activator) / IC50: PFKM; for IC50: read-out: IC50 or AC50 (inhibitor); for KmF6P: PFK-M
PFKL = settings: cited from earlier work
PFKP = settings: cited from earlier work
PFK-M (rat heart) = test system: PFK-M (rat heart); set-up: method as in Moreno-Sanchez et al(10) 2012; settings: tissue supernatant, ATP 550-700M, ref Moreno-Sanchez et al(10) 2012; cited from earlier work
PFK-P (HeLa cell) = test system: PFK-P (HeLa cell); set-up: method as in Moreno-Sanchez et al(10) 2012; settings: tissue supernatant, ATP 550-700M, ref Moreno-Sanchez et al(10) 2012; cited from earlier work
[1] = ref Sanchez-Martinez et al., 2000
[2] = ATP titration, F6P 4 mM, n = 6, mean (SD)
[3] = ref Foe and Kemp, 1985, read-out: IC50 or AC50 (inhibitor)
[4] = ref Vora 1985, read-out: IC50 or AC50 (inhibitor)
[5] = modulator 10 µM, ATP 0.5mM, N=3, mean (SD)
[6] = modulator 10 µM, F6P 4mM, N=3, mean (SD)
[7] = GTP titration, F6P 4 mM, n = 3, mean (SD)

SMILES: Nc1ncnc2c1ncn2[C@@H]1O[C@H](COP(=O)(O)OP(=O)(O)O)[C@@H](O)[C@H]1O [ADP]
- effect on PFK activity, in words (recombinant human PFK-M): inhibiting
- change in kcat^ATP/K0.5^ATP compared with control PFK without modulator (recombinant human PFK-M; modulator 600 µM): −52%
- change in kcat^F6P/K0.5^F6P compared with control PFK without modulator (recombinant human PFK-M; modulator 600 µM): −13%

SMILES: Nc1ncnc2c1ncn2[C@@H]1O[C@H](COP(=O)(O)O)[C@@H](O)[C@H]1O [AMP]
- IC50 or AC50 (activator) (PFKM; ref Foe and Kemp, 1985): 10 µM
- IC50 or AC50 (activator) (PFKL; ref Foe and Kemp, 1985): 10 µM
- IC50 or AC50 (activator) (PFKP; ref Foe and Kemp, 1985): 75 µM
- IC50 or AC50 (activator) (PFKP; [1]): 8 µM
- decrease in K0.5^F6P by AMP (recombinant human PFK-M; F6P titration): near two-fold decrease
- change in kcat^ATP/K0.5^ATP compared with control PFK without modulator (recombinant human PFK-M; modulator 1200 µM): −12%
- change in kcat^F6P/K0.5^F6P compared with control PFK without modulator (recombinant human PFK-M; modulator 1200 µM): −25%

SMILES: Nc1ncnc2c1ncn2[C@@H]1O[C@H](COP(=O)(O)OP(=O)(O)OP(=O)(O)O)[C@@H](O)[C@H]1O [ATP]
- decrease in specificity constant (ATP inhibition) (recombinant human PFK-M; 1 mM ATP compared with 0.5 mM ATP): 21%
- increase in specific activity (recombinant human PFK-M; ATP concentration from 0.25 mM to 0.5 mM): 23%
- decrease in specific activity (recombinant human PFK-M; ATP concentration from 0.5 mM to 1 mM): 21%
- K0.5^ATP (recombinant human PFK-M; [2]): 151 µM and 152 µM and 151.8 (10.0) µM
- Vmax^ATP (recombinant human PFK-M; [2]): 38.4 (0.9) µmoles/min.mg
- kcat^ATP (recombinant human PFK-M; [2]): 56.0 (1.2) s^−1
- kcat^ATP/K0.5^ATP (recombinant human PFK-M; [2]): 0.37 s^−1 µM^−1 and 0.37 (0.12) s^−1 µM^−1
- h (ATP) (recombinant human PFK-M; Hill value, ATP titration, F6P 4 mM, n = 6, mean (SD)): 1.03 (0.05)

SMILES: O=C(O)CC(O)(CC(=O)O)C(=O)O [Citrate]
- IC50 (PFKM; ref Foe and Kemp, 1985): 100 µM
- IC50 (PFKM; ref Vora 1985): 130 µM
- IC50 (PFKL; [3]): > 2000 µM
- IC50 (PFKL; [4]): 180 µM
- IC50 (PFKP; [3]): 750 µM
- IC50 (PFKP; ref Sanchez-Martinez et al., 2000, read-out: IC50 or AC50 (inhibitor)): 400 µM
- IC50 (PFKP; [4]): 80 µM
- IC50 (recombinant human PFK-M; dose-response, read-out: IC50^citrate): 982 ± 109 µM
- change in kcat^ATP/K0.5^ATP compared with control PFK without modulator (recombinant human PFK-M; modulator 600 µM): +5%
- change in kcat^F6P/K0.5^F6P compared with control PFK without modulator (recombinant human PFK-M; modulator 600 µM): −36%

SMILES: Nc1nc2c(ncn2[C@@H]2O[C@H](COP(=O)(O)OP(=O)(O)OP(=O)(O)O)[C@@H](O)[C@H]2O)c(=O)[nH]1 [GTP]
- K0.5^GTP (recombinant human PFK-M; [7]): 97 µM and 96.7 (8.0) µM
- Vmax^GTP (recombinant human PFK-M; [7]): 17.82 (0.44) µmoles/min.mg
- kcat^GTP (recombinant human PFK-M; [7]): 26.0 (0.6) s^−1
- kcat^GTP/K0.5^GTP (recombinant human PFK-M; [7]): 0.27 s^−1 µM^−1 and 0.27 (0.08) s^−1 µM^−1
- h (GTP) (recombinant human PFK-M; Hill value, GTP titration, F6P 4 mM, n = 3, mean (SD)): 1.19 (0.12)

Further lines, with some results ahead:

- K0.5^F6P (recombinant human PFK-M; F6P titration, ATP 0.5 mM, n = 6, mean (SD)): 147 µM and 147.1 (13.6) µM
SMILES: O=C(CO)[C@@H](O)[C@H](O)[C@H](O)COP(=O)(O)O [F6P, fructose 6-phosphate]
- KmF6P (PFK-M (rat heart)): 145 µM
- KmF6P (PFK-P (HeLa cell)): 1100 µM
- KmF6P (PFKM; partially purified tissue, ATP 1000M, ref Dunaway et al(8) 1988): 2000 µM
- KmF6P (PFKM; purified tissue, ATP 500M, ref Meienhofer et al(7) 1980): 1800 µM
- KmF6P (PFKM; recombinant (yeast), ATP 5000M, ref Sanchez-Martinez et al(9) 2000): 2000 µM

- effect on PFK activity, in words (recombinant human PFK-M): strongly activated
- allosteric constant K0.5^ATP+F26BP/K0.5^ATP (recombinant human PFK-M; ATP titration): 1.10
- AC50 (recombinant human PFK-M; activation, read-out: AC50^F26BP): 6.27 µM
- change in kcat^ATP/K0.5^ATP compared with control PFK without modulator (recombinant human PFK-M; modulator 10 µM): −7.4%
- change in kcat^F6P/K0.5^F6P compared with control PFK without modulator (recombinant human PFK-M; modulator 10 µM): +82%
- K0.5F6P + modulator (recombinant human PFK-M; [5]): 109.6 (5.3)
- VmaxF6P + modulator (recombinant human PFK-M; [5]): 5.81 (0.09)
- K0.5ATP + modulator (recombinant human PFK-M; [6]): 165.2 (9.2)
- VmaxATP + modulator (recombinant human PFK-M; [6]): 38.80 (0.75)
SMILES: O=P(O)(O)OC[C@H]1O[C@@](CO)(OP(=O)(O)O)[C@@H](O)[C@@H]1O [F26BP, fructose 2,6-bisphosphate]
- IC50 or AC50 (activator) (PFKM; ref Foe and Kemp, 1985): 0.05 µM
- IC50 or AC50 (activator) (PFKM; unit inferred, ref Vora 1985): 10 µM
- IC50 or AC50 (activator) (PFKL; ref Foe and Kemp, 1985): 0.05 µM
- IC50 or AC50 (activator) (PFKL; ref Van Schaftingen et al 1981): 0.04 µM
- IC50 or AC50 (activator) (PFKL; unit inferred, ref Vora 1985): 100 µM
- IC50 or AC50 (activator) (PFKP; ref Foe and Kemp, 1985): 4.5 µM
- EC50 (PFKP; ref Sanchez-Martinez et al., 2000, read-out: Kact): 2.2 µM
- IC50 or AC50 (activator) (PFKP; unit inferred, ref Vora 1985): 100 µM

- change in kcat^ATP/K0.5^ATP compared with control PFK without modulator (recombinant human PFK-M; modulator 1100 µM): −11%
- change in kcat^F6P/K0.5^F6P compared with control PFK without modulator (recombinant human PFK-M; modulator 1100 µM): −7%
SMILES: C=C(OP(=O)(O)O)C(=O)O [PEP, phosphoenolpyruvate]
- Ki (PFKP; [1]): 2780 µM

Reference: PMC7702303, “Biochemical and transcript level differences between the three human phosphofructokinases show optimisation of each isoform for specific metabolic niches” (Biochemical Journal, 2020)
